Literature values as cited in patent publication US20200236925A1, “METHODS AND FORMULATIONS FOR PREVENTING DOWNWARD MIGRATION OF AGRICULTURAL MATERIALS” (BAYER CROPSCIENCE LP, priority 2019, published 2020).

Columns and labels:
[1] = tested on: hybrid bermudagrass; settings: application rate increased from 35 to 53 g ha-1; SOC ≤0.3% w w-1
[2] = tested on: hybrid bermudagrass; settings: 35 or 52 g ha-1, fall or spring treatments

What does the source list for `Cc1ccc2c(c1)[C@H](Nc1nc(N)nc(C(C)F)n1)[C@@H](C)C2` (mixture of isomers) [indaziflam, N2-[(1R,2S)-2,3-dihydro-2,6-dimethyl-1H-inden-1-yl]-6-[(1RS)-1-fluoroethyl]-1,3,5-triazine-2,4-diamine]?
increase of hybrid bermudagrass injury [1]: > 10 fold; hybrid bermudagrass root strength vs nontreated [2]: no differences in hybrid bermudagrass root strength; solubility in distilled water (distilled water): 2.8 µg/mL; field-T1/2 (field persistence): > 150 days; aqueous solubility (Ks) (pH 7): 2.4 µg/mL
